Assay results as given in patent publication US12352767B2, “Method of treating cognitive decline associated with neurological diseases based on a decrease in FLT4 expression or activity” (University of Virginia Patent Foundation, priority 2018, dated 2025).
“Also recorded” adds a separate entry of the source.

Experiments:
[1] = test system: brain hippocampus and cortex; experiment: T1-weighted MRI of brain influx of i.c.m. gadolinium, Lymph4D analysis; format: in vivo, mice
Description: Measurement of gadolinium influx rate and modeling of tracer advection-diffusion within the brain were achieved using Lymph4D, a software developed in-house and available for revision purposes on the following link on the world wide web: viva-lab.ece.virginia.edu/lymph4d. To allow for a direct comparison between the different conditions, the MRI stacks Si(x, y, z, t) of the imaged mice (4 vehicle and 4 Visudyne) were aligned to a Visudyne stack V1(x, y, z, t), chosen as reference. Before proceeding with the automated registration in the (x, y) plane, the stacks were manually aligned along the z (sagittal) direction, to ensure the correspondence between (x, y) (transversal plane) slices, and cropped both in the z and t (time) direction, to ensure that each set of coordinates (x, y, z, t) contained meaningful data. To optimize the slice alignment in the (x, y) plane, scale pyramids (Adelson, E. H., Anderson, C. H., Bergen, J. R., Burt, P. J. & Ogden, J. M. Pyramid methods in image processing. RCA engineer 29, 33-41, (1984).) (3 levels deep) were computed for both the image to be registered and the reference. Starting from the coarser scale, the optimal non-reflective transformation matrix (restricted to translation, rotation, and scaling) was evaluated by using an iterative process based on the steep gradient descent method with a mean square error (MSE) cost function. After reaching algorithm convergence at the largest scale, or the maximum number of allowed iterations, the alignment was refined using progressively finer scales. A linear interpolation mapping was then used to reconstruct the image registered using the optimized transformation matrix. The following alignment strategy was used. Given a stack Si to be aligned to V1, for every slice zj(t)=Si(x, y, zj, t) at a given location in the sagittal direction (z=zj), the optimal transformation matrix was evaluated at every available time (t) and the quality (MSE) of the resulting alignment measured. […] Also, after the alignment, contrast measurement, providing the difference between the maximum and the minimum values observed along the temporal direction during the experiment duration (variability in tracer signal intensity over time), was evaluated for a given (x, y, z) location in the S; stack using: […]
The model was discretized using the forward-time central-space (FTCS) finite difference method (Ferziger, J. H. & Perić, M. Finite Difference Methods. In: Computational Methods for Fluid Dynamics. 3rd edition, 39-69, Springer, Berlin, Heidelberg, (2002).) after the following assumptions. The concentration (x, t) was considered proportional to the measured MRI signal intensity. […]

aquaporin 4 (AQP4) = experiment: AQP4 / CD31 immunostaining of brain sections; format: in vivo, mice
Description: Mouse fresh frozen brain sections were fixed with 4% PFA for 30 min, rinsed in dH2O and submitted to a heat-induced antigen retrieval step with 10 mM citrate buffer for 20 min. […] The steps described next were generally applied for mouse fresh frozen or fixed free-floating brain sections, lymph node sections on slide, meningeal whole-mounts and human fixed tissue. For immunofluorescence staining, tissue was rinsed in PBS and washed with PBS 0.5% Triton-X-100 for 10 min, followed by incubation in PBS 0.5% Triton-X-100 containing 0.5% of normal serum (either goat or chicken) and 0.5% bovine serum albumin (BSA) for 1 hour at RT. This blocking step was followed by incubation with appropriate dilutions of primary antibodies: anti-LYVE-1 eFluor 660 or anti-LYVE-1 Alexa Fluor® 488 (eBioscience, clone ALY7, 1:200), anti-CD31 (Millipore Sigma, MAB1398Z, clone 2H8, 1:200), anti-IBA1 (Abcam, ab5076, 1:300), anti-GFAP (Millipore Sigma, ab5541, 1:300), anti-AQP4 (Millipore Sigma, A5971, 1:200), anti-Ki67 (Abcam, ab15580, 1:100), anti-hAβ1-16 (BioLegend, clone 6E10, 1:200), anti-Aβ1-37/42 (Cell Signaling, clone D54D2, 1:300) and anti-GFP (Abcam, ab6556, 1:300) in PBS 0.5% Triton-X-100 containing 0.5% of normal serum and 0.5% BSA overnight at 4° C. Meningeal whole-mounts or tissue sections were then washed 3 times for 5 min at RT in PBS 0.5% Triton-X-100 followed by incubation with the appropriate chicken, goat or donkey Alexa Fluor® 488, 546, 594, or 647 anti-rat, -goat, -rabbit, -mouse or -Armenian hamster IgG antibodies (Thermo Fisher Scientific, 1:500) for 1 or 2 hours at RT in PBS 0.5% Triton-X-100. After an incubation for 10 min with 1:2000 DAPI in PBS, the tissue was washed 3 times for 5 min with PBS at RT and mounted with Aqua-Mount (Lerner) and glass coverslips. Preparations were stored at 4° C. for no more than 1 week until images were acquired either using a widefield microscope (Leica) or a confocal microscope (FV1200 Laser Scanning Confocal Microscope, Olympus). Quantitative analysis using the acquired images was performed on FIJI software. For the assessment of brain fluorescent tracer influx or efflux or AQP4 coverage, 10 representative brain sections were imaged using the widefield microscope and the mean area fraction was calculated using Microsoft Excel. […] Area of coverage by CD31^+ blood vessels and AQP4^+ astrocyte endfeet in the brain cortex was achieved by calculating the mean value of 10 representative fields (5 images in each cerebral hemisphere) per sample acquired using the confocal microscope.

[2] = test system: hippocampal transcriptome; experiment: RNA-seq of whole hippocampus after meningeal lymphatic ablation (Table 2, Table 3); format: in vivo, mice
Description: After defrosting in ice, samples were mechanically dissociated in extraction buffer and RNA was isolated using the kit components according to the manufacturer's instructions (RNeasy mini kit, cat. no. 74106, Qiagen). The Illumina TruSeq Stranded Total RNA Library Prep Kit was used for cDNA library preparation from total RNA samples. Sample quality control was performed on an Agilent 4200 TapeStation Instrument, using the Agilent D1000 kit, and on the Qubit Fluorometer (Thermo Fisher Scientific). For RNA sequencing (RNA-seq), libraries were loaded on to a NextSeq 500 (Illumina) using an Illumina NextSeq High Output (150 cycle) cartridge (#FC-404-2002).
The raw sequencing reads (FASTQ files) were first chastity filtered, which removes any clusters that have a higher than expected intensity of the called base compared to other bases. The quality of the reads was then evaluated using FastQC^57, and after passing quality control (QC), the expression of the transcripts was quantified against the UCSC mm10 genome^58 using Salmon^59. These transcript abundances were then imported into R and summarized with tximport^60, and then DESeq2^61 was used to normalize the raw counts, perform exploratory analysis (e.g., principal component analysis), and to perform differential expression (DE) analysis. Before DE analysis of the meningeal LECs from adult vs old mice dataset, surrogate variable analysis^62 (SVA) was used to identify and adjust for latent sources of unwanted variation as implemented in the SVA package^63. The P-values from the DE analysis were corrected for multiple hypothesis testing with the Benjamini-Hochberg false discovery rate procedure (adj. P-value). Functional enrichment of DE genes, using gene sets from Gene Ontology (GO) and Kyoto Encyclopedia of Genes and Genomes (KEGG), was determined with Fisher's exact test as implemented in the clusterProfiler^64 Bioconductor package. Heatmaps of the DE genes and enriched gene sets were generated with the R package pheatmap^65. Normalized counts of selected transcripts were used to calculate the fold change relative to respective controls.

[3] = test system: intracranial vasculature, blood-brain barrier, brain ventricles; conditions: mouse, in vivo
Description: All MRI acquisitions were performed at the University of Virginia Molecular Imaging Core facilities in a 7T Clinscan system (Bruker, Ettlingen, Germany) equipped with a 30 mm diameter cylindrical RF Coil. For analysis of mouse intracranial vascular structure, mice were placed in the 7T Clinscan system under light anaesthesia with isoflurane (1-1.25% in oxygen). Structural imaging data of intracranial arteries (magnetic resonance angiography or MRA) was acquired with a high-resolution 3D isotropic Spiral Cine Phase Contrast (SCPC) technique: repetition time (TR)=15 ms, echo time (TE)=0.63 ms, field of view (FOV)=25×25 mm, slice thickness=0.01 mm, number of sagittal slices=160, number of averages per phase-encode step (NEX)=1 and flip angle (FA)=20°. Total imaging time was of about 15 min per mouse. Structural imaging data of intracranial veins (magnetic resonance venography or MRV) was acquired with a high-resolution 3D isotropic SCPC technique with a saturation band positioned caudal to the slices, in order to saturate the arterial signal: TR=17 ms, TE=4.54 ms, FOV=17×26 mm, slice thickness=0.3 mm, number of sagittal slices=160, NEX=2 and FA=90°. Total imaging time was of about 13 min per mouse. Vascular volume and diameters were quantified using semi-automatic segmentation tools provided in the OsiriX software. For analysis of mouse brain ventricular volume, mice were placed in the 7T Clinscan system under light anaesthesia with isoflurane and structural imaging data were acquired with a high-resolution 3D isotropic T2-weighted SPACE technique with the following parameters: TR=3000 ms, TE=139 ms, FOV=26×20.5 mm, slice thickness=0.13 mm, number of slices=160 and NEX=3, requiring a total acquisition time of about 16 min per mouse. Ventricular volumes were quantified using semi-automatic segmentation tools provided in the OsiriX software.
Initially, a pre-contrast image was acquired after placing the mice in the 7T Clinscan system under light anaesthesia with isoflurane. Gadobenate dimeglumine (gadolinium or Gd, MultiHance, Bracco Diagnostics, Princeton, New Jersey) at 0.3 mmol/kg was then injected intravenously (i.v.), through a catheter inserted in the tail vein. To assess the rate of influx of a CSF tracer into the brain, mice were anaesthetized by i.p. injection of ketamine and xylazine in saline and an i.c.m. injection of 5 μL of Gd at a concentration of 25 mM in saline was performed. […] The mice were placed in the MRI apparatus and maintained under light anaesthesia with isoflurane. For MRI acquisition, maximum gradient strength of the system was 500 mT/m and the peak slew rate achievable was 6667 mT/m/ms. After i.v. injection of Gd or 10 min after injecting gadolinium into the CSF, a series of post-contrast T1-weighted images were taken through the head with the following parameters: TR=500 ms, TE=11 ms, FOV=20×20 mm with a 192×192 matrix (104 μm×104 μm resolution), slice thickness=0.7 mm, number of slices=22 and NEX=2. For i.v. Gd injection 5 post-contrast images were acquired requiring about 16 min per mouse (each sequence taken every 194 s). For brain influx of Gd injected into the CSF, the total acquisition time was of about 52 min per mouse (194 s×16 sequences per mouse), meaning that T1 images were acquired for approximately 1 hour post-injection.

brain parenchyma = experiment: Brain perfusion/influx by CSF tracer OVA-A647 (brain sections); format: in vivo, mice; conditions: 7 days after Visudyne/photoconversion, vs control groups
Description: Mice were anaesthetized by intraperitoneal (i.p.) injection of a mixed solution of ketamine (100 mg/Kg) and xylazine (10 mg/Kg) in saline. The skin of the neck was shaved and cleaned with iodine and 70% ethanol, ophthalmic solution placed on the eyes to prevent drying and the mouse's head was secured in a stereotaxic frame. After making a skin incision, the muscle layers were retracted and the cisterna magna exposed. Using a Hamilton syringe (coupled to a 33-gauge needle), the volume of the desired tracer solution was injected into the CSF-filled cisterna magna compartment. For brain CSF influx and lymphatic drainage experiments, 2 or 5 μL of Alexa Fluor® 594 or 647 conjugated OVA (Thermo Fisher Scientific), at 0.5 mg/mL in artificial CSF (#597316, Harvard Apparatus U.K.), were injected at a rate of 2.5 μL/min. After injecting, the syringe was left in place for additional 2 min to prevent back-flow of CSF.

[4] = Visudyne-treated vs vehicle-treated mice
[5] = after meningeal lymphatic ablation (Visudyne/photoconversion) and MWM

For verteporfin [Visudyne], which “Gd signal gain in hippocampus and cortex” value ([1]; 7 days after Visudyne/photoconversion, Gd 25 mM i.c.m., 16 MRI sequences (~52 min), vs vehicle) is on record?
The value was “significantly lower”.

What about the “contrast in Gd signal intensity in the ventricles” value ([1]; Visudyne-treated mice, over ~52 min) of the same substance?
Its value is “higher contrast in signal intensity”.

And the “isotropic diffusion coefficient of Gd in the brain” value ([1]; after meningeal lymphatic ablation with Visudyne, advection-diffusion model in Lymph4D)?
The value was “lower coefficient values”.

And the “Gd signal intensity gain (relative to sequence 1) in the brain cortex” value ([1]; one week after Visudyne/photoconversion, Gd 25 mM i.c.m., vs vehicle/photoconversion)?
The value was “significant decrease”.

What about the “area of AQP4+ astrocytic endfeet in brain cortex” value (aquaporin 4 (AQP4); Visudyne vs vehicle) of the same substance?
The value was “No changes were observed”.

And the “area of CD31+ blood vessels in brain cortex” value (aquaporin 4 (AQP4); Visudyne vs vehicle)?
The value was “No changes were observed”.

And the “ratio between area of AQP4+ and of CD31+” value (aquaporin 4 (AQP4); Visudyne vs vehicle)?
The value was “No changes were observed”.

And the “overall brain coverage by AQP4 (area fraction)” value (aquaporin 4 (AQP4); [4])?
Its value is “could not detect changes; also recorded: no differences between groups”.

And the “perivascular localization of AQP4+ astrocytic endfeet” value (aquaporin 4 (AQP4); [4])?
Its value is “could not detect changes”.

What about the “number of genes down-regulated in the hippocampus” value [2, 5] of the same substance?
The value was 2138 genes.

What about the “number of genes up-regulated in the hippocampus” value [2, 5] of the same substance?
Its value is 1599 genes.

What about the “hippocampal transcriptome (RNA-seq principal component analysis) without MWM” value ([2]; four weeks of meningeal lymphatic ablation, Visudyne/photoconversion vs vehicle/photoconversion) of the same substance?
Its value is “did not induce significant changes; also recorded: did not show a differential clustering”.

And the “hippocampal gene expression (RNA-seq) after MWM performance” value ([2]; prolonged meningeal lymphatic ablation, Visudyne/photoconversion vs vehicle/photoconversion)?
Its value is “significant differences in hippocampal gene expression; also recorded: differential clustering”.

What about the arterial vessel volume [3] of the same substance?
Its arterial vessel volume is “no significant changes between groups”.

What about the basilar artery diameter [3] of the same substance?
Its basilar artery diameter is “no significant changes between groups”.

And the “structure of major intracranial veins and arteries” value [3]?
The value was “not altered”.

And the “superior sagittal sinus (SSS) diameter” value [3]?
The value was “no significant changes between groups”.

What about the venous vessel volume [3] of the same substance?
Its venous vessel volume is “no significant changes between groups”.

What about the “brain perfusion by CSF tracer (OVA-A647 area fraction in brain sections)” value (brain parenchyma) of the same substance?
Its value is “significantly lower; also recorded: significant decrease”.
